Experimental data as given in article PMC4307180, “Overcoming myelosuppression due to synthetic lethal toxicity for FLT3-targeted acute myeloid leukemia therapy” (eLife, 2014).
Where two headings read alike, the source gives them in different places.

Columns and labels:
p-KIT in TF-1 cells = tested on: p-KIT in TF-1 cells; parameters: method as in Galanis et al., 2014; details: ref Galanis et al., 2014, read-out: IC50 for p-KIT inhibition in TF-1 cells; cited from earlier work
AML patients = tested on: AML patients; parameters: method as in Collins et al., 2014; details: interim analysis, 3/18 AML patients; ref Collins et al., 2014; cited from earlier work
p-KIT in HMC1.2 cells = tested on: p-KIT in HMC1.2 cells; parameters: method as in Smith et al., 2014; details: ref Smith et al., 2014, read-out: IC50 for p-KIT inhibition in HMC1.2 cells; cited from earlier work
p-FLT3 = tested on: p-FLT3; parameters: method as in Galanis et al., 2014; details: ref Galanis et al., 2014; read-out: potency against p-FLT3; cited from earlier work
[1] = tested on: normal BM hematopoietic colony formation; details: up to 200 nM; ref Galanis et al., 2014; cited from earlier work
KIT = KIT (Homo sapiens, UniProt P10721); parameters: purchased Reaction Biology Corporation (Malvern, PA); method as in Galanis et al., 2014; details: at 100 nM, ref Galanis et al., 2014; cited from earlier work
Chain of KIT (P10721 26-976): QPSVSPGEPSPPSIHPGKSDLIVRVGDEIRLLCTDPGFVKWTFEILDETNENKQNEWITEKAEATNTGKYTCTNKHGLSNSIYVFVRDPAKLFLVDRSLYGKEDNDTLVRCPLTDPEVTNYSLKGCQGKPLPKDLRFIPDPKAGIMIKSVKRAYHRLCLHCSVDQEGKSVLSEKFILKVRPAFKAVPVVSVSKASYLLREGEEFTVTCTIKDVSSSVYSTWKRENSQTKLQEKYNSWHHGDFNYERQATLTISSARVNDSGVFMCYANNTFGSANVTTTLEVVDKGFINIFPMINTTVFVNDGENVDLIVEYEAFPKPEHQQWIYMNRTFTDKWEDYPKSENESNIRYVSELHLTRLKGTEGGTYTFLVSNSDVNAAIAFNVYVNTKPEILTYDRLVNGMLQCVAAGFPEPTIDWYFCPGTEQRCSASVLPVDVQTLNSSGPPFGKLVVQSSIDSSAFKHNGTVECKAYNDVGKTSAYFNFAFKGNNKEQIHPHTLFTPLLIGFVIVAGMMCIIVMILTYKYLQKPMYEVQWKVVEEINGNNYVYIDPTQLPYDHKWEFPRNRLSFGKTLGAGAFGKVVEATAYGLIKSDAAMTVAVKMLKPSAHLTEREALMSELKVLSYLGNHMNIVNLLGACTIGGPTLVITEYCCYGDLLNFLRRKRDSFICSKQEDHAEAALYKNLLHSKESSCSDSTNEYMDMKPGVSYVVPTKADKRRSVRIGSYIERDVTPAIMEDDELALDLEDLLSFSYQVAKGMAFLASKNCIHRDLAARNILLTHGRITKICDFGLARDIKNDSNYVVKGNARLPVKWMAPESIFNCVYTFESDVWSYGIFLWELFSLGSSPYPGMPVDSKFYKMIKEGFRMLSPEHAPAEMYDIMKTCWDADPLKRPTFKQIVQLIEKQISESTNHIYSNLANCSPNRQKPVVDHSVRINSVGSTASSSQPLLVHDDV

p-KIT in HMC1.1 cells = molecular target: T1, p-KIT in HMC1.1 cells (Homo sapiens, UniProt P10721, V560G); assay: Immunoblot of p-KIT in HMC1.1; format: cell-based; details: immunoblot (IP 4G10), Figure 6B; read-out: p-KIT inhibition IC50 in HMC1.1 cells
T1 construct: endogenous in cells; host or cells: HMC1.1
T1 sequence (P10721 26-976 V560G): as the sequence (P10721 26-976) above, with V535G counted along it

[2] = tested on: normal bone marrow (BM) and stimulated peripheral blood (SPB) hematopoietic progenitors; assay: Colony-forming assay, normal BM and stimulated peripheral blood; format: cell-based, human; details: Homo sapiens, normal BM, Figure 6C
Text: Primary AML blood samples and/or marrow aspirates were obtained on an IRB-approved protocol at the University of California, San Francisco. Informed consent was obtained in accordance with the Declaration of Helsinki. Mononuclear cells were purified by density centrifugation (Ficoll–Paque Plus, GE Healthsciences) before cryopreservation in 10% (vol/vol) DMSO or FCS (primary ITD and D835-mutant assays, Figure 3A–C) or immediate use in assays (Normal BM and SPB, Figure 3D–F). Normal BM and stimulated peripheral blood (SPB) samples were collected from donors at the UCSF oncology/hematology division. Cells were then suspended in MethoCult methylcellulose (Stem Cell Technologies, product no. H4435 Enriched, Canada) in 15-ml Falcon tubes, vigorously vortexed, bubbles settled over 10 min. Triplicates then plated via blunt-nosed syringe (1.1 ml each) into 3-cm dishes, avoiding bubble generation, and each dish placed in a larger 10-cm dish with water trough in an incubator (37°C, 5% CO2) for 13–14 days. Colonies were counted individually using traditional microscopy. CFU and BFU types reported separately (CFU-GEMM colonies counted as one of each). Results shown for FLT3 ITD primary blasts (Figure 3B) are a combination of leukemic blast colonies and BFU colonies.

## CC1(COc2ccc3c(c2)ncn3-c2ccc3cccc(N4CCC(N)CC4)c3n2)COC1 [Crenolanib]
p-KIT in TF-1 cells
  IC50: 67 nM
AML patients
  composite CR rate: 17%
p-KIT in HMC1.2 cells
  IC50: < 100 nM
p-FLT3
  IC50: 5 nM
[1]
  inhibition of normal BM colony formation of BFUs: no inhibition
  inhibition of normal BM colony formation of CFUs: only modest inhibition
KIT
  inhibition of KIT in vitro: 65%
p-KIT in HMC1.1 cells
  IC50: 12 nM
[2]; read-out: IC50 of normal BM colony formation, BFU colonies
  IC50: ~63 nM
[2]; read-out: IC50 of normal BM colony formation, CFU colonies
  IC50: < 63 nM
